{"source": "patent US20050214738A1", "about": "“Conditional allele system” (priority 2003, published 2005)", "key": {"[1]": {"biological_target": "T1, FRB*Pax6 (UniProt P26883+P42345, K2095P/T2098L/W2101F)", "T1 construct": "The minimal FRB domain comprises amino acids 2025-2114 of human mTor; from tissue; host or cells: e13.5 cortical neural cultures (A14) and cultured whole embryos (A15) from Pax6^FRB* knock-in mice; fusion expressed from the targeted endogenous locus", "T1 sequence (P42345 2025-2114 K2095P/T2098L/W2101F)": "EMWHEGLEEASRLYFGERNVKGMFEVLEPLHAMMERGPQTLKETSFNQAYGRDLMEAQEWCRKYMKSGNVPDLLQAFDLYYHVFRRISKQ", "T1 sequence (P26883 2-108)": "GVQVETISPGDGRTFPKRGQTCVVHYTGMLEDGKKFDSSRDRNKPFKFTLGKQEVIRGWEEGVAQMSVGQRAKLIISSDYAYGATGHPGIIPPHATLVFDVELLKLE", "test": "Whole embryo culture, inducible stabilization of FRB*Pax6", "set-up": "species or system mouse", "method": "Uterine horns were removed from sacrificed mothers to a petri dish containing Hank's Balanced Salt Solution (HBSS), fat was removed and the uterus cut up to isolate embryos. Individual deciduum were carefully removed from the uterus by carefully pulling apart the muscular layers in a fresh petri dish containing HBSS (sometimes supplemented with 2 mg/mL glucose) under a dissecting microscope. Embryos were removed by cutting along the lateral axis of the deciduum with fine forceps taking care not to puncture the embryonic membranes and teasing off the decidual layers overlying the embryo. Embryos were then separated from the remaining decidua at the ectoplacental cone or primitive placenta (depending on the age of the embryo).\nReichert's membrane was grasped without the underlying visceral yolk sac, carefully torn away from the embryo and trimmed back to the placenta without ripping the yolk sac. […] The bottle rotated slowly in a roller bottle chamber at 37° C. Drugs were added directly to the culture media at the commencement of the culture.\nEmbryos were fixed overnight in 4% paraformaldehyde/PBS then dehydrated through a staged ethanol series. Endogenous peroxidases were inactivated with 5% H2O2 for 4 hours in ethanol and the embryos were rehydrated. […] Embryos were washed in block 6 hours with 1 hour changes and incubated overnight at 4° C. with […] anti-mouse secondary. Embryos were washed with PBS+0.1% Triton X-100 4 times for 1 hour and developed with the DAB peroxidase kit from Vector laboratories.\nEmbryos were protected with a staged series to 30% sucrose in PBS after fixation in 4% PFA (60 minutes to overnight at 4° C.). Protected embryos were embedded in OCT (VWR) frozen and sectioned on a Leica cryostat to 10 μm. Thin sections were stained according to standard protocols (obtained upon request). Secondary antibodies were purchased from Molecular Probes (Eugene, Oreg.) and primary antibodies to neurofilament, Lim3, Nkx2.2, Pax6, En1, Isl1 were obtained from Dev. Studies. Additional antibodies were from Covance, Zymed or a generous gift of Tadashi Nomura and Noriko Osumi (Sendai, Japan). Immunofluorescence was visualized by confocal microscopy."}, "[2]": {"biological_target": "T2, GSK-3βFRB* (Homo sapiens, UniProt P42345+P62942, K2095P/T2098L/W2101F)", "T2 construct": "The minimal FRB domain comprises amino acids 2025-2114 of human mTor; endogenous in cells; host or cells: lysates of MEFs from GSK-3β^FRB* knock-in mice; immunoprecipitated with anti-GSK-3β", "T2 sequence (P42345 2025-2114 K2095P/T2098L/W2101F)": "as the sequence (P42345 2025-2114 K2095P/T2098L/W2101F) above", "T2 sequence (P62942 whole entry, the tested form may be a part)": "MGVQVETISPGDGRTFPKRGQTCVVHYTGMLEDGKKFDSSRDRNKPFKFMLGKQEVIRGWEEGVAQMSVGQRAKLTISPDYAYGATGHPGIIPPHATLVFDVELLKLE", "test": "GSK-3β immunoprecipitation-kinase assay on MEF lysates", "type": "biochemical, mouse", "conditions": "treated GSK-3βFRB*/FRB* cells"}, "[3]": {"test_system": "T3, GSK-3βFRB* (K2095P/T2098L/W2101F)", "T3 construct": "The minimal FRB domain comprises amino acids 2025-2114 of human mTor; endogenous in cells; host or cells: lysates of MEFs from GSK-3β^FRB* knock-in mice; immunoprecipitated with anti-GSK-3β", "T3 sequence (P42345 2025-2114 K2095P/T2098L/W2101F)": "as the sequence (P42345 2025-2114 K2095P/T2098L/W2101F) above", "T3 sequence (P62942 whole entry, further chain, the tested form may be a part)": "as the sequence (P62942 whole entry, the tested form may be a part) above", "test": "GSK-3β immunoprecipitation-kinase assay on MEF lysates", "type": "biochemical, mouse", "conditions": "treated versus untreated GSK-3βFRB*/FRB* MEFs"}, "[4]": {"biological_target": "T4, FRB (Homo sapiens, UniProt P42345+P62942)", "T4 construct": "The minimal FRB domain comprises amino acids 2025-2114 of human mTor; expressed in transfected cells; host or cells: COS-1 cells, electroporated with pBJ5-FRBVP, pBJ5-GF3E and pG5IL2SX", "T4 sequence (P42345 2025-2114)": "as the sequence (P42345 2025-2114 K2095P/T2098L/W2101F) above, with P71K, L74T, F77W counted along it", "T4 sequence (P62942 whole entry, the tested form may be a part)": "as the sequence (P62942 whole entry, the tested form may be a part) above", "test": "SeAP reporter assay, dimerization of FRB-VP16 to FKBP3-GAL4DBD in COS-1 cells", "type": "cell-based", "text": "Transcription activation by recruitment of chimeric transcriptional activation and DNA binding domains is described. COS-1 cells were electroporated with […] each of the following expression plasmids (Ho, S. N., Biggar, S. R., Spencer, D. M., Schreiber, S. L., and Crabtree, G. R. “Dimeric ligands define a role for transcriptional activation domains in reinitiation.” (1996) Nature 382, 822-826): pG5IL2SX (drives transcription of bacterial secreted alkaline phosphatase (SeAP) through GAL4 DNA binding […] elements), pBJ5-GF3E (which expresses the GAL4 DNA binding domain fused to three copies of human FKBP12), and pBJ5-FRBVP. (which expresses a FRB fusion with the Herpes Simplex Virus VP16 Activation domain) A FRB*-VP16 fusion protein which consists of modified FRB protein fused to the VP16 activation domain was also used selectively. Transfected cells were distributed equally to 96 well plates and were incubated at 37° C. for 24 to 36 hours before media was supplemented with drug in a dilution curve in which each point is represented in quadruplicate. Cells were incubated at 37° C. for an additional 24 hours followed by a 2-hour treatment at 65° C. to inactivate endogenous phosphatases. Each well was supplemented with 100μL of 1 mM methylumbelliferylphosphate dissolved in 2 M diethanolamine buffered to pH 10.0 with carbonate and incubated at 37° C. for 16 hours. Fluorescence was measured with a Fluoroscan (ICN) plate reader at 355 nm transmission and 455 nm emission using Deltasoft software.\nDrug efficacy was determined in a three-plasmid transcriptional switch reporter assay. ˜106 COS1 cells were coelectroporated with 2 μg of the DNA binding construct pBJ5-Gal4-FKBP(3), 2 μg pBJ5-VP16 (or the relevant mutant FRB) and 2 μg of the Gal4-SeAP reporter. Electroporation details are available upon request. […] SeAP activity was measured by fluorescence with a Spectamax M2 fluorometer (Molecular Devices, Sunnyvale, Calif.) with transmission set at 355 nm and emmission set at 460 nm. Data was analysed with Softmax Pro (Molecular Devices), Microsoft Excel and Prism 3 (GraphPad Software)."}, "[5]": {"biological_target": "T5, FKBP-GSK3β-GFP (Homo sapiens, UniProt P62942)", "T5 construct": "expressed in transfected cells; host or cells: COS1 cells", "T5 sequence (P62942 whole entry)": "as the sequence (P62942 whole entry, the tested form may be a part) above", "test": "Sub-cellular localization of FKBP-GSK3β-GFP with FRB(TLW)-NES and FRB(KTF)-NLS in COS1 cells", "type": "cell-based", "conditions": "10 nM, 1 hour", "method": "COS1 cells were electroporated with 1 μg pS-FKBP-GSK3β-GFP, 1 μg of the ‘exporter’ pBJ5-FRB(TLW)-Exp-HA containing a nuclear export sequence derived from the rev protein of Human Immunodeficiency Virus and 3 μg of the ‘importer’ pBJ5-FRB(KTF)-Imp with a nuclear localization sequence from SV40 Large T antigen. Cells were plated on autoclaved coverslips and incubated 36 hours followed by 1 hour of rapalog treatment (10 nM). Cells were fixed 10 minutes in 4% paraformaldeyde/PBS at 4° C. and mounted for microscopy with DAPI to visualize the nucleus. Microscopy was perfomed with a Leica confocal microscope and Leica software."}}, "note": "Values joined by “and” are separate entries in the source; they are usually repeats but may differ in a detail not shown here. Equal entries are not always repeated."}
{"substance": "C20-(R or S)-methallylrapamycin [C20-MaRap]", "values": [{"measurement": "Lim3 phenotype of caudal hindbrain", "setting": "[1]; 48 hours from e9.5 to e11.5", "value": "could be rescued"}, {"measurement": "hypoglossal nerve, whole mount neurofilament staining", "setting": "[1]; 48 hours from e9.5 to e11.5", "value": "fasciculated hypoglossal nerve erupts"}, {"measurement": "expression of FRB*Pax6 protein in the spinal cord", "setting": "[1]; Pax6FRB*/FRB* embryos, data not shown", "value": "rescued"}, {"measurement": "En1 expressing cells in the V1 domain of spinal cord", "setting": "[1]; e8.5 embryos cultured 48 hours, 2 μM", "value": "rescued the development of En1 expressing cells"}, {"measurement": "cells expressing Lim3 in spinal cord", "setting": "[1]; e9.5 to e11.5, 2 μM", "value": "expansion of cells expressing Lim3"}, {"measurement": "effect on wild-type embryos", "setting": "[1]; embryo cultures", "value": "no obvious effect"}, {"measurement": "kinase activity relative to wild-type cells", "setting": "[2]", "value": "approximately 60%"}, {"measurement": "increase in GSK-3β kinase activity", "setting": "[3]", "value": "over 7 fold"}, {"measurement": "Kd", "setting": "[4]; wild-type FRB", "value": "> 200", "unit": "nM"}, {"measurement": "EC50", "setting": "[4]; wild-type FRB(KTW)-VP16, ±95% confidence intervals", "value": "226 nM and > 200 nM"}, {"measurement": "sub-cellular localization of GSK3β", "setting": "[5]", "value": "localization of GSK3β to the nucleus"}]}
